From patent US20230348437A1, “COMPOUNDS, COMPOSITIONS AND METHODS” (Denali Therapeutics Inc., priority 2020, published 2023)

These compounds were tested on NLRP3 (IL-1β secretion from THP-1 cells) (assay: IL-1β secretion assay in 384-well plates, PMA differentiated THP-1 cells, LPS and nigericin stimulation). Conditions: Homo sapiens; THP-1 cells, PMA 5 ng/mL, LPS 25 ng/mL, nigericin, IL-1β ELISA, 384-well; read-out: Activity.
Format: cell-based
Procedure: Compounds as provided herein were tested in the following assay. […] Freezing medium was made up of 90% FBS and 10% DMSO. THP-1 cells were removed from the liquid nitrogen and placed into a 37° C. water bath to thaw, until signs of ice dissipated. The cells were then added to 9 mL of warm cell culture medium and centrifuged for 5 minutes at 1000 rpm. The supernatant was discarded, and the cells were resuspended in new cell culture medium. The THP-1 cells were then split and cultured in the cell culture medium, being passaged every 2-3 days (5×10^5 cells/mL passaged every two days, 3×10^5 cells/mL passaged every three days). Cell density was maintained between 5×10^5-1.5×10^6 viable cells/mL.
PMA was dissolved in DMSO to make a stock solution at 5 mg/mL and stored in 10 µl aliquots at -20° C. for single use. PMA is added to normal growth medium. LPS was diluted with 1 mL of water solution to provide a 1 mg/mL stock solution and stored in 15 µl aliquots at -20° C. for single use. Nigericin is diluted in ice cold 100% ethanol to 5 mg/mL (6.7 mM) and stored in 75 µL aliquots at -20° C. for single use. […] The two control conditions used to qualify and normalize test compound dose-response curves were as follows: High Control = 25 ng/mL LPS, 5 µM Nigericin, 0.5% DMSO, Low Control = 25 ng/mL, LPS, 0.5% DMSO.
THP-1 cells were diluted to provide a suspension at a concentration of 1.0×10^6 cells/mL with the total volume of suspension required to enable the desired number of assay plates. The growth media was supplemented with PMA (5 ng/mL final concentration) and the cells were incubated at 37° C. under a humidified atmosphere of 5% CO2 for 40 h.
All media was carefully aspirated from each culture flask. The cells were washed carefully with 1x DPBS. The cells were then briefly digested with trypsin LE for 5 minutes at 23° C. and immediately resuspended in cell growth media. After resuspension, the cells were centrifuged at 1000 rpm for 3 minutes and the supernatant was discarded. The cells were resuspended in DPBS and once again centrifuged at 1000 rpm for 5 minutes. The supernatant was discarded and the cell pellet was resuspended in serum-free media supplemented with LPS (25 ng/mL final concentration) to enable the distribution of 30 K THP-1 cells within 45 µL of media into each well of 384-well PDL-coated plates. The 384-well plates were then incubated at 37° C. under a humidified atmosphere of 5% CO2 for 2 h. Following this period, test compounds were dispensed by Tecan across the desired concentration range with all wells normalized to a final 0.5 % DMSO concentration. The plates were then incubated at 37° C. under a humidified atmosphere of 5% CO2 for 1 h. Following this period, 5 µL of the […] nigericin stock solution was added to each of the appropriate wells and plates were centrifuged at 1000 rpm for 30 seconds. The plates were the immediately reintroduced to the incubator at 37° C. under a humidified atmosphere of 5% CO2 for 2 h. After this time, 35 µL/well of supernatant was collected and transferred into v-bottom plate and centrifuged at 1000 rpm for 1 minute. These supernatant aliquots were analyzed using an IL-Iβ detection kit as described below. If needed, the test samples could be snap frozen and stored at -80° C. until analyzed.
To prepare each ELISA plate, capture antibody (mAb Mt175) was diluted with PBS to a final concentration of 2 µg/mL and then 20 µL of this solution was added to each well of the ELISA plate. Each plate was allowed to incubate overnight at 4° C. The next day, the capture antibody solution was removed and discarded. […] Each ELISA plate was then allowed to incubate for 1 hour at 23° C. After this time, the blocking buffer was removed and discarded. Each ELISA plate was washed 4 times with PBST. During this time, the v-bottomed plates containing the supernatant aliquots from the assay run were centrifuged at 300 g for 5 minutes before transferring 15 µL/well of the supernatant sample to each ELISA plate. […]

Structure (SMILES) | IC50
CC(C)c1nn(CC(=O)N[C@H]2C[C@@](C)(O)C2)c(=O)cc1-c1cc(F)cc(F)c1 [Example 21, 2-[4-(3,5-difluorophenyl)-6-oxo-3-propan-2-ylpyridazin-1-yl]-N-(cis-3-hydroxy-3-methylcyclobutyl)acetamide] | 902 nM
Cc1cccc(-c2cc(=O)n(CC(=O)N[C@H]3C[C@@](C)(O)C3)nc2C(C)C)c1F [Example 22, 2-[4-(2-fluoro-3-methylphenyl)-6-oxo-3-propan-2-ylpyridazin-1-yl]-N-(cis-3-hydroxy-3-methylcyclobutyl)acetamide] | 1570 nM
Cc1ccc(F)c(-c2cc(=O)n(CC(=O)N[C@H]3C[C@@](C)(O)C3)nc2C(C)C)c1 [Example 23, 2-[4-(2-fluoro-5-methylphenyl)-6-oxo-3-propan-2-ylpyridazin-1-yl]-N-(cis-3-hydroxy-3-methylcyclobutyl)acetamide] | 1890 nM
CC(C)c1nn(CC(=O)N[C@H]2C[C@@](C)(O)C2)c(=O)cc1-c1cc(F)ccc1F [Example 24, 2-[4-(2,5-difluorophenyl)-6-oxo-3-propan-2-ylpyridazin-1-yl]-N-(cis-3-hydroxy-3-methylcyclobutyl)acetamide] | 1900 nM
CC(C)c1nn(CC(=O)N[C@H]2C[C@@](C)(O)C2)c(=O)cc1-c1cccc(F)c1F [Example 25, 2-[4-(2,3-difluorophenyl)-6-oxo-3-propan-2-ylpyridazin-1-yl]-N-(cis-3-hydroxy-3-methylcyclobutyl)acetamide] | 1820 nM
Cc1ccccc1-c1cc(=O)n(CC(=O)N[C@H]2C[C@@](C)(O)C2)nc1C(C)C [Example 26] | 6660 nM
CC(C)c1nn(CC(=O)N[C@H]2C[C@@](C)(O)C2)c(=O)cc1-c1cccc(C2CC2)c1 [Example 27, 2-[4-(3-cyclopropylphenyl)-6-oxo-3-propan-2-ylpyridazin-1-yl]-N-(cis-3-hydroxy-3-methylcyclobutyl)acetamide] | 1910 nM
CCOc1cccc(-c2cc(=O)n(CC(=O)N[C@H]3C[C@@](C)(O)C3)nc2C(C)C)c1 [Example 28, 2-[4-(3-ethoxyphenyl)-6-oxo-3-propan-2-ylpyridazin-1-yl]-N-(cis-3-hydroxy-3-methylcyclobutyl)acetamide] | 8470 nM
CCN1CCC[C@@H](NC(=O)Cn2nc(C(C)C)c(-c3cccc4ccccc34)cc2=O)C1 [Example 29] | 874 nM
CCN1CCC[C@@H](NC(=O)Cn2nc(C(C)C)c(-c3cc(F)cc(C4CC4)c3)cc2=O)C1 [Example 30, 2-[4-(3-cyclopropyl-5-fluorophenyl)-6-oxo-3-propan-2-ylpyridazin-1-yl]-N-[(3R)-1-ethylpiperidin-3-yl]acetamide] | 1300 nM
CCN1CCC[C@@H](NC(=O)Cn2nc(C(C)C)c(-c3cccc(C4CCC4)c3)cc2=O)C1 [Example 31, 2-[4-(3-cyclobutylphenyl)-6-oxo-3-propan-2-ylpyridazin-1-yl]-N-[(3R)-1-ethylpiperidin-3-yl]acetamide] | 6980 nM
CCN1CCC[C@@H](NC(=O)Cn2nc(C(C)C)c(-c3cc(F)cc(F)c3F)cc2=O)C1 [Example 32, N-[(3R)-1-ethylpiperidin-3-yl]-2-[6-oxo-3-propan-2-yl-4-(2,3,5-trifluorophenyl)pyridazin-1-yl]acetamide] | 649 nM
CC(C)c1nn(CC(=O)Nc2ncncc2F)c(=O)cc1-c1cccc2ccncc12 [Example 33] | 3210 nM
CCOc1nn(CC(=O)N[C@H]2C[C@@](C)(O)C2)c(=O)cc1-c1ccccc1 [Example 34] | 29500 nM
CCc1c(-c2cccc(F)c2)c(C(C)C)nn(CC(=O)Nc2ncncc2F)c1=O [Example 35, 2-[5-ethyl-4-(3-fluorophenyl)-6-oxo-3-propan-2-ylpyridazin-1-yl]-N-(5-fluoropyrimidin-4-yl)acetamide] | 35300 nM
Cc1c(-c2cccc(F)c2)c(C(C)C)nn(CC(=O)Nc2ncncc2F)c1=O [Example 36, 2-[4-(3-fluorophenyl)-5-methyl-6-oxo-3-propan-2-ylpyridazin-1-yl]-N-(5-fluoropyrimidin-4-yl)acetamide] | 1000 nM
